# ChEMBL document CHEMBL5465560, “Selectivity Literature for EUbOPEN Chemogenomic Library” (2024)
# Legend:
# [1] = target: T1, Muscarinic acetylcholine receptor M2 (Homo sapiens) (UniProt P08172); test: Selectivity interaction (GPCR panel (PDSP screen)) EUB0001079a CHRM2; conditions: at 10 µM
# T1 sequence (whole entry): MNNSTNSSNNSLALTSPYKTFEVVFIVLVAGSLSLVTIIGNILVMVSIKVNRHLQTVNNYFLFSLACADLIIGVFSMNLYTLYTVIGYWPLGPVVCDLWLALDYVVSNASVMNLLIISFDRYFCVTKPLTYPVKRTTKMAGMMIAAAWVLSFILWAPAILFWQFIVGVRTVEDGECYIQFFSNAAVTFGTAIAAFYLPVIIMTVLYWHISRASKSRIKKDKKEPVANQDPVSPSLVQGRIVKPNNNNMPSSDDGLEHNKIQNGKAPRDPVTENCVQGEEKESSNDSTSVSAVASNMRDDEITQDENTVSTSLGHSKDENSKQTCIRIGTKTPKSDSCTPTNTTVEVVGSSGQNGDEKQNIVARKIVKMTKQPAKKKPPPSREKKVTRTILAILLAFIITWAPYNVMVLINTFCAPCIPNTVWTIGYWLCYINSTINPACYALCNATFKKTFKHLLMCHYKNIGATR
# [2] = target: Casein kinase I isoform delta (Homo sapiens, UniProt P48730); test: Selectivity interaction (KinomeScan (DiscoverX)) EUB0001079a CSNK1D; conditions: at 1 µM
# Sequence of Casein kinase I isoform delta (P48730 whole entry, looked up, canonical isoform): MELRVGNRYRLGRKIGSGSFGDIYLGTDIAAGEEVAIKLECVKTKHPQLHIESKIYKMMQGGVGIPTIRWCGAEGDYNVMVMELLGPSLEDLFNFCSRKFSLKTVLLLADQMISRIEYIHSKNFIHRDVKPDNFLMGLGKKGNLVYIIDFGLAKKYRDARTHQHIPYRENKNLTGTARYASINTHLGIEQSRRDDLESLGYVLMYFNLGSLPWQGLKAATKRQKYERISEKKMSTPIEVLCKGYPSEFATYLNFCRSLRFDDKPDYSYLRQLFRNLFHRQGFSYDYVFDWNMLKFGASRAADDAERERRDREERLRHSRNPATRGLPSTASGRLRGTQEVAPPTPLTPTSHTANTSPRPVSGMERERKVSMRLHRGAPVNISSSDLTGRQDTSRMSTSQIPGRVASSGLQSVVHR
# [3] = target: MAP kinase-activated protein kinase 2 (Homo sapiens, UniProt P49137); test: Selectivity interaction (KinomeScan (DiscoverX)) EUB0001079a MAPKAPK2; conditions: at 1 µM
# Sequence of MAP kinase-activated protein kinase 2 (P49137 whole entry, looked up): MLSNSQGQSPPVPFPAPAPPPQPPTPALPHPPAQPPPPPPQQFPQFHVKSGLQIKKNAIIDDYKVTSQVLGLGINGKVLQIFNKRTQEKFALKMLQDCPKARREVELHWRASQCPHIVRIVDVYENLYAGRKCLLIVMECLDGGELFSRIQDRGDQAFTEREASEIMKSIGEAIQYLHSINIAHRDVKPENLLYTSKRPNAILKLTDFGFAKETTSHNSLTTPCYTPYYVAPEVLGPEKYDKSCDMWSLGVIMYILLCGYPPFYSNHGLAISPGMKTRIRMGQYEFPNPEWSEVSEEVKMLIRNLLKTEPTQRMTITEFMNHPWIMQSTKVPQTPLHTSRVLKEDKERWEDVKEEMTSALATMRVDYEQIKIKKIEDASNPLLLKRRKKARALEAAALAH
# [4] = target: Tyrosine-protein kinase HCK (Homo sapiens) (UniProt P08631); test: Selectivity interaction (ActivX KiNativ screen (kinase selectivity in THP-1 cell lysates)) EUB0000639a HCK; assay type: subcellular; conditions: lysate, at 0.2 µM
# Sequence of Tyrosine-protein kinase HCK (Homo sapiens) (P08631 2-526 limits assumed): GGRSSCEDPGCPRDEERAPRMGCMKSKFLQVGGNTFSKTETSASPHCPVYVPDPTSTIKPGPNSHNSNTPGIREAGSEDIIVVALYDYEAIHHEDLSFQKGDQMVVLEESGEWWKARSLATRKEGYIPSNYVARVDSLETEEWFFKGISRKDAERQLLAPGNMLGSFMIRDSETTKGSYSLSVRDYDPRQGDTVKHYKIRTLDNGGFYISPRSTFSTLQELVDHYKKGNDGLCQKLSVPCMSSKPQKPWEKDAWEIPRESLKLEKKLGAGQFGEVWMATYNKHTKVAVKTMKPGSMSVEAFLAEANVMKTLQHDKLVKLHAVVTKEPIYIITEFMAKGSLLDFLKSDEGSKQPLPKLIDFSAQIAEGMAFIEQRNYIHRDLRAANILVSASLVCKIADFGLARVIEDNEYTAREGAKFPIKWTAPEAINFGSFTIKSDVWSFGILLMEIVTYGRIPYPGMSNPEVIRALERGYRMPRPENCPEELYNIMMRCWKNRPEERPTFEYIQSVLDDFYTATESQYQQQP
# [5] = target: T2, Inhibitor of nuclear factor kappa-B kinase subunit beta (Homo sapiens) (UniProt O14920); test: Selectivity interaction (ActivX KiNativ screen (kinase selectivity in THP-1 cell lysates)) EUB0000639a IKBKB; assay type: subcellular; conditions: lysate, at 1 µM
# T2 sequence (whole entry): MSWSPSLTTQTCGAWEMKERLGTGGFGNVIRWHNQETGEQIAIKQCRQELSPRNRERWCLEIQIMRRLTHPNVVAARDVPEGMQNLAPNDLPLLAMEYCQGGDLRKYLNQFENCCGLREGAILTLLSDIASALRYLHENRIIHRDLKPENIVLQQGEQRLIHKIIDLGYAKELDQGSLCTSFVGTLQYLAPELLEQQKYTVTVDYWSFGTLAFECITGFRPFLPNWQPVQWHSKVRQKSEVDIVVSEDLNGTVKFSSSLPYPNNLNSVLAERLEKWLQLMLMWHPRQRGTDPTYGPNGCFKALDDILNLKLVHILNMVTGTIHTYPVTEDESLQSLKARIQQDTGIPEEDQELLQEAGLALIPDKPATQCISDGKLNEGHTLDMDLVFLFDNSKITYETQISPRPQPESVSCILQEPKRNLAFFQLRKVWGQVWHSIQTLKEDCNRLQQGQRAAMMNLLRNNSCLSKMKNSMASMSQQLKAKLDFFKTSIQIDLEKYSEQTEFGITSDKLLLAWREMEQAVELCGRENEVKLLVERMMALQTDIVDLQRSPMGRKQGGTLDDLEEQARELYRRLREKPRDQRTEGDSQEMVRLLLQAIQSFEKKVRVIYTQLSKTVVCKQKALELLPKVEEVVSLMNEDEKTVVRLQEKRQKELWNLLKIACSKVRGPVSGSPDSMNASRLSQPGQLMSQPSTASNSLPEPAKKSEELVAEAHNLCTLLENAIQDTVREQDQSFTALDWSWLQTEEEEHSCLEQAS
# [6] = target: Calcium/calmodulin-dependent protein kinase type II subunit alpha (Homo sapiens, UniProt Q9UQM7); test: Selectivity interaction (SelectScreen profiling (Invitrogen)) EUB0000607a CAMK2A; conditions: at 2 µM
# Sequence of Calcium/calmodulin-dependent protein kinase type II subunit alpha (Q9UQM7 whole entry): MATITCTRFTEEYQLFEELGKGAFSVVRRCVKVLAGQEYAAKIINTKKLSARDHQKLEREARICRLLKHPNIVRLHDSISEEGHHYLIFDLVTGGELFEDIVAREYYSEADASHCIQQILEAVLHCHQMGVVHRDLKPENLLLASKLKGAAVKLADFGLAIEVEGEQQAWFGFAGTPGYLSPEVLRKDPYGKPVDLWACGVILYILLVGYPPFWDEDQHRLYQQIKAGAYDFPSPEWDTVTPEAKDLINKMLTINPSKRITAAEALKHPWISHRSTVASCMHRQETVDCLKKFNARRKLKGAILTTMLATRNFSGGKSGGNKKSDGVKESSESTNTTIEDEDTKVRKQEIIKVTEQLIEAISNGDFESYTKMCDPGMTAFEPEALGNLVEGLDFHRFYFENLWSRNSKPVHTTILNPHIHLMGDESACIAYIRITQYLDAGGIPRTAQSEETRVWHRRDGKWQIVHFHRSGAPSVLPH
# [7] = target: Serine/threonine-protein kinase Chk2 (Homo sapiens) (UniProt O96017); test: Selectivity interaction (SelectScreen profiling (Invitrogen)) EUB0000607a CHEK2; conditions: at 2 µM
# Sequence of Serine/threonine-protein kinase Chk2 (Homo sapiens) (O96017 whole entry): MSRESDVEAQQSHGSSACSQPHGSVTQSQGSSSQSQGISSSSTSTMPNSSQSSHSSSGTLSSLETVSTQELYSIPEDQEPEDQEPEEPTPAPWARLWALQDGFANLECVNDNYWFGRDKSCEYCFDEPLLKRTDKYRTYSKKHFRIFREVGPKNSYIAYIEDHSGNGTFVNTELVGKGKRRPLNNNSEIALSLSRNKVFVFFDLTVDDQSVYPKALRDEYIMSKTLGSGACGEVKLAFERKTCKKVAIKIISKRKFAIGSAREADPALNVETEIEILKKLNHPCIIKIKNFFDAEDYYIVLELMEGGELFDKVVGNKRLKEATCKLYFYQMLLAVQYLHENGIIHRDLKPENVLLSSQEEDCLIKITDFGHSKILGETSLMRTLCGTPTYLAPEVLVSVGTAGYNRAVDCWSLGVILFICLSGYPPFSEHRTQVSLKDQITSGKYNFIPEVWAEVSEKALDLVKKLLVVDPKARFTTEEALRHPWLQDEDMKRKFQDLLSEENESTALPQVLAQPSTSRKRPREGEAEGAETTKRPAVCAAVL
# [8] = target: High affinity nerve growth factor receptor (Homo sapiens, UniProt P04629); test: Selectivity interaction (SelectScreen profiling (Invitrogen)) EUB0000607a NTRK1; conditions: at 2 µM
# [9] = target: Glucocorticoid receptor (Homo sapiens) (UniProt P04150); test: Selectivity interaction (Panel of non-epigenetic targets (kinases, GPCRs, ion channels, and transporters, Eurofins) ) EUB0000271b NR3C1; conditions: at 1 µM
# Sequence of Glucocorticoid receptor (Homo sapiens) (P04150 whole entry): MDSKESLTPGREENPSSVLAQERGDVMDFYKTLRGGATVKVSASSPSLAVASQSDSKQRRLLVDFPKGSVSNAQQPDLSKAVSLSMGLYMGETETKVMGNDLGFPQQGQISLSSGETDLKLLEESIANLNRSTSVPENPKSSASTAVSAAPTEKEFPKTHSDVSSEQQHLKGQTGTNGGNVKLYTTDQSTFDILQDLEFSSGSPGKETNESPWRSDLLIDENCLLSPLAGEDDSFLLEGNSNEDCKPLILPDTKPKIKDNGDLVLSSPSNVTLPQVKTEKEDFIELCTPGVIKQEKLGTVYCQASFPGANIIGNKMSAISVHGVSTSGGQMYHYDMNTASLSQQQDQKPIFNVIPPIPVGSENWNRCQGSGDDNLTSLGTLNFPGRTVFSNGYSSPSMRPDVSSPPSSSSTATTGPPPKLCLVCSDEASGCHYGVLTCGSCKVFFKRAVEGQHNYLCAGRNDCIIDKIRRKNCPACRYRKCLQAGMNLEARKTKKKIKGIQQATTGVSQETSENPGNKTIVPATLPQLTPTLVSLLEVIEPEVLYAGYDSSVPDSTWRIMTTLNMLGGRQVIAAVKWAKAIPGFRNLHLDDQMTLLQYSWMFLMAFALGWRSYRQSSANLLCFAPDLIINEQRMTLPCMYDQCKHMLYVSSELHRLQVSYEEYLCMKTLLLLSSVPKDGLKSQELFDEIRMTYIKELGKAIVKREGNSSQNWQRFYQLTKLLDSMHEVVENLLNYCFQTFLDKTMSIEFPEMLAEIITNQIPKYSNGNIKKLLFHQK
# [10] = target: Vascular endothelial growth factor receptor 2 (Homo sapiens, UniProt P35968); test: Selectivity interaction (NovaScreen assay) EUB0001542aTs KDR
# Sequence of Vascular endothelial growth factor receptor 2 (P35968 whole entry): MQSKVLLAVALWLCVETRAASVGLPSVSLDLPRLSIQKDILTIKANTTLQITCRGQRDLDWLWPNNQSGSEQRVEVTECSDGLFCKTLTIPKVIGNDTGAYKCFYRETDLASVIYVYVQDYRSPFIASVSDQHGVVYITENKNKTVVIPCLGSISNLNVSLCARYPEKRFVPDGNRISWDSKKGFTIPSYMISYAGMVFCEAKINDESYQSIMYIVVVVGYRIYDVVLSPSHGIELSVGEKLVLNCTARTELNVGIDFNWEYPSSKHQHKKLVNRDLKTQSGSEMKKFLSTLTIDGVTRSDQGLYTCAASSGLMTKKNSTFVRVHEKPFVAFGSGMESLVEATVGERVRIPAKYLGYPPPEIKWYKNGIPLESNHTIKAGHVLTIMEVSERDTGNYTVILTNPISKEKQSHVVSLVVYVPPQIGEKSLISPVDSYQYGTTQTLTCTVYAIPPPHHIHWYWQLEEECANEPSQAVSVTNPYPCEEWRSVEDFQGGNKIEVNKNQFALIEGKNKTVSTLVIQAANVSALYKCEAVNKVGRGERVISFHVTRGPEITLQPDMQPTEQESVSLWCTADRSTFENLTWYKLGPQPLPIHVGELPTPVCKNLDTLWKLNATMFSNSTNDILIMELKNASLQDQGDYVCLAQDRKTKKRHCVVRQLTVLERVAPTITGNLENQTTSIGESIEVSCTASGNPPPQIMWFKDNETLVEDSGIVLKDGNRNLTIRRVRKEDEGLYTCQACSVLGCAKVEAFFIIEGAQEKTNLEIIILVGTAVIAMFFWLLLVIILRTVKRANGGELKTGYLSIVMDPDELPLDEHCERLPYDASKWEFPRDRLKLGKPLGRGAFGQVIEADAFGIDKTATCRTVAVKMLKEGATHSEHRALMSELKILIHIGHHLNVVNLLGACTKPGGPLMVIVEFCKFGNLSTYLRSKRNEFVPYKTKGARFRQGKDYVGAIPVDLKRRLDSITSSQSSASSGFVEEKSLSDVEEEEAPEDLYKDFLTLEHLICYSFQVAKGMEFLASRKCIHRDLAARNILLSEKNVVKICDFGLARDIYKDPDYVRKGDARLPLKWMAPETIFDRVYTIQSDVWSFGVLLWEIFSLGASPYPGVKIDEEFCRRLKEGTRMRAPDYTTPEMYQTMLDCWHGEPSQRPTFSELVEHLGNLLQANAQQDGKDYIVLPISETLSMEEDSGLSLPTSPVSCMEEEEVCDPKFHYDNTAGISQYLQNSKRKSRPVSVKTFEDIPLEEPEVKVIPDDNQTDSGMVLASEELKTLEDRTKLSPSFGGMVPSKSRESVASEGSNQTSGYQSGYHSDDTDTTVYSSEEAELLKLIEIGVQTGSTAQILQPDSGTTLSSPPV
# [11] = target: T3, Serine/threonine-protein kinase D2 (Homo sapiens) (UniProt Q9BZL6); test: Selectivity interaction (KinomeScan (DiscoverX)) EUB0000618a PRKD2; conditions: at 10 µM
# T3 sequence (whole entry): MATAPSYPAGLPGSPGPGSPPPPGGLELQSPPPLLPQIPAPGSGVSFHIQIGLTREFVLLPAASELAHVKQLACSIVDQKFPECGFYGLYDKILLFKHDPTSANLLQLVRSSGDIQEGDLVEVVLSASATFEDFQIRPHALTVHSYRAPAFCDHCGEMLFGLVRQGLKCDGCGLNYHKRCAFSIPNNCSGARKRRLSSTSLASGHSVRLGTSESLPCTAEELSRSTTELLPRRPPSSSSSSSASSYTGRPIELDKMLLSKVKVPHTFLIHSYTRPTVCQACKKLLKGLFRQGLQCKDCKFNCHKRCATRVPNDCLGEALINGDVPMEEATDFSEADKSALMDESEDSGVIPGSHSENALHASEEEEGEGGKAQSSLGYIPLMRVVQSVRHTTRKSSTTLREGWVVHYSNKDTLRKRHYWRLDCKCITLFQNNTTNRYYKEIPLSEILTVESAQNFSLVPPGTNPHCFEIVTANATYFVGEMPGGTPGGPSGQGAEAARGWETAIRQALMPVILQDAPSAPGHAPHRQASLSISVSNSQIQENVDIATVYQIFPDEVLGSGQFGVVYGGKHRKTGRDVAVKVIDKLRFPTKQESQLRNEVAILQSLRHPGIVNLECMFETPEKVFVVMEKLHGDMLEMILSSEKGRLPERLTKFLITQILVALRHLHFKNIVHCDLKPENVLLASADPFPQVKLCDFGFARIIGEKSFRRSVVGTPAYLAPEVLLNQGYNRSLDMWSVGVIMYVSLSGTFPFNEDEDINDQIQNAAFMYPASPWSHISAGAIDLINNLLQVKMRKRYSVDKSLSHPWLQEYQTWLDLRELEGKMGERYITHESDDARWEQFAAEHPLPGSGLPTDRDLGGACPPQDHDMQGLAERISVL
# [12] = target: D(2) dopamine receptor (Homo sapiens, UniProt P14416); test: Selectivity interaction (Eurofins CEREP Diversity Profile (receptors and ion channels)) EUB0000279b DRD2; conditions: at 10 µM
# Sequence of D(2) dopamine receptor (P14416 whole entry): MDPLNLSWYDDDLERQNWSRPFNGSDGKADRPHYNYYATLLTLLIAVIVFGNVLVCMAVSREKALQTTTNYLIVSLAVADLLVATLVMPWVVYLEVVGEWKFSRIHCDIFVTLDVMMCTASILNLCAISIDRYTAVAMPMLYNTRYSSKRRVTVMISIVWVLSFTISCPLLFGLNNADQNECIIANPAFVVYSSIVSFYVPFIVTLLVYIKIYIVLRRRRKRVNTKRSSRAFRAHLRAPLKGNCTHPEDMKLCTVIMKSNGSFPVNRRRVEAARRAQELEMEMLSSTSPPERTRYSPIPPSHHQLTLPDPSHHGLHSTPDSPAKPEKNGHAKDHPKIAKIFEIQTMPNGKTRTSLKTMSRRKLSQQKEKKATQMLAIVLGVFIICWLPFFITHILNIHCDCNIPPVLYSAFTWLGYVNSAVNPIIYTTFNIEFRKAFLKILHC
# [13] = test system: Epidermal growth factor receptor (Homo sapiens), P00533 [UNDEFINED MUTATION]; test: Selectivity interaction (Ambit KINOMEscan and KiNATiv profiling in Jurkat cells) EUB0000090b EGFR; assay type: cell-based; conditions: at 1 µM
smiles,measurement,setting,value
Nc1cnc(N2CCc3cc(S(=O)(=O)Nc4c(F)cc(Cl)cc4F)cc(N4CCCC4=O)c32)nc1 [TP-020n],% of inhibition,[1],3.7%
same,% of control,[2],98%
same,% of control,[3],100%
CC[C@@H]1[C@H](F)C(=O)N[C@@H]1COc1nccc2cc(C(N)=O)c(OC)cc12 [ZIMLOVISERTIB],% of inhibition,[4],-32.6%
same,% of inhibition,[5],-6.6%
CNC(=O)Nc1ccc(-c2nc(N3CC4CCC(C3)O4)c3cnn(C4CCC5(CC4)OCCO5)c3n2)cc1,% of inhibition,[6],0%
same,% of inhibition,[7],3%
same,% of inhibition,[8],7%
Cc1cc(C)cc([C@@H]2c3cc(C)ccc3NC(=O)CN2C(=O)c2ccc(Br)s2)c1,% of inhibition,[9],15%
Cn1cc(Nc2nccc(N3CC4CCC(C3)N4C(=O)[C@@H]3CC3(F)F)n2)cn1,IC50,[10],> 30 µM
O[C@H]1CC[C@H](Nc2ncc3nc(Nc4c(F)cc(F)cc4F)n([C@H]4CCOC4)c3n2)CC1,% of control,[11],77%
CC(=O)c1cc(-c2ccccc2OCC2CC2)c2ncccn12,% of control,[12],92%
CN(C)C/C=C/C(=O)Nc1ccc(C(=O)N2CCCC(Nc3ncc(Cl)c(-c4c[nH]c5ccccc45)n3)C2)cc1 (stereo not drawn),% of control,[13],80%
